# Patent US20110207697A1, “XANTHOHUMOL COMPOSITIONS AND METHODS FOR TREATING SKIN DISEASES OR DISORDERS” (Betal, LLC, priority 2008, published 2011)
# Read-outs that look alike come from different tables or passages of the source.
# Key:
# [1] = HORAC hydroxyl radical ORAC; details: FIG. 2 radar chart
# Experimental: (§1) [table] […] The SOAC scores are not included in this figure; ORAC values used are the sum of lipophilic and hydrophilic results. For each assay category, scaling was made logarithmic so that the plot on the chart resembles the associated rating. […] The larger the spatial area, the higher the overall antioxidative capacity. […] Both hydrophilic and lipophilic oxygen radical absorbance capacity (ORAC) assays were carried out at Brunswick Laboratory (Wareham, Mass.) based on the modified ORACfl method reported by Ou et al. (2001 J. Agric. Food Chem. 49: 4619-4626, 2002 J. Agr. Food Chem. 50: 3122-3128). Trolox, a water-soluble vitamin E analog, was used as the calibration standard. The data are expressed as mmole of Trolox equivalents per gram (mmol TE/g). The acceptable precision of the ORAC assay is a 15% relative standard deviation. […] Hydroxyl radical ORAC (HOR-AC) is expressed as mmole caffeic acid equivalent per gram (mmol CAE/g). […] The peroxyl nitrite ORAC (NORAC) result is expressed as mmol TE/g. Alpha-tocopherol (vitamin E) was used as the calibration standard, and the singlet oxygen absorbance capacity (SOAC) result is expressed as mmole a-tocopherol equivalent (mmol VtE) per gram (Aubry et al. 1989). […] Radical-scavenging activity was measured by the change in absorbance at 517 nm with the DPPH result expressed as mmol TE/g. […] The FRAP result is expressed as mmol TE/g (Ou et al. 2002b). […]
# [2] = FRAP ferric reducing antioxidative power; details: FIG. 2 radar chart
# Experimental: as §1
# [3] = Singlet oxygen absorbance capacity (SOAC)
# Excerpt: [table] Alpha-tocopherol (vitamin E) was used as the calibration standard, and the SOAC result is expressed as mmol VtE/g. The higher the SOAC score, the higher the singlet oxygen-quenching capacity. […] Singlet oxygen has been postulated to be a highly reactive and toxic intermediate against skin. It is known that the acne-causing bacterium P. acnes naturally produces high amounts of intracellular porphyrins, mostly coproporphyrin (Ashkenazi et al. 2003). Singlet oxygen can be generated on the skin surface from P. acnes porphyrins under sunlight and induce serious skin damage ([…] et al. 1996 Biochem. Biophys. Res. Commun. 223: 578-582). Various skin disorders progress through a singlet oxygen-dependent mechanism, including acne, atopic dermatitis, and skin aging. Both hydrophilic and lipophilic oxygen radical absorbance capacity (ORAC) assays were carried out at Brunswick Laboratory (Wareham, Mass.) based on the modified ORACfl method reported by Ou et al. (2001 J. Agric. Food Chem. 49: 4619-4626, 2002 J. Agr. Food Chem. 50: 3122-3128). Trolox, a water-soluble vitamin E analog, was used as the calibration standard. The data are expressed as mmole of Trolox equivalents per gram (mmol TE/g). The acceptable precision of the ORAC assay is a 15% relative standard deviation. Caffeic acid was used as the calibration standard. Hydroxyl radical ORAC (HOR-AC) is expressed as mmole caffeic acid equivalent per gram (mmol CAE/g). Trolox was used as the calibration standard. The peroxyl nitrite ORAC (NORAC) result is expressed as mmol TE/g. Alpha-tocopherol (vitamin E) was used as the calibration standard, and the singlet oxygen absorbance capacity (SOAC) result is expressed as mmole a-tocopherol equivalent (mmol VtE) per gram (Aubry et al. 1989). […] Radical-scavenging activity was measured by the change in absorbance at 517 nm with the DPPH result expressed as mmol TE/g. […] The FRAP result is expressed as mmol TE/g (Ou et al. 2002b). Superoxide dismutase (SOD) was used as a calibration standard; the SOD result is expressed as kilo unit SOD equivalent (kunitSODeq) per gram.
# [4] = Water solubility of xanthohumol (HPLC of supernatant); assay type: physicochemical; details: thermodynamic from solid, 1 mg xanthohumol per ml water, sonicated 5 minutes
# Experimental: Pure xanthohumol (XN), Xanohop A, xanthohumol-gamma cyclodextrin (XN/gCD), and xanthohumol-beta cyclodextrin (XN/bCD) were dispersed in water at a ratio of 1 mg xanthohumol per ml of water. After being sonicated for 5 minutes, the resultant suspensions were centrifuged at 3,000 rpm for 2 minutes or 12,000 rpm for 3 minutes. The supernatants thus formed were collected, diluted (1:10) with methanol, and then injected into HPLC to determine xanthohumol concentrations.
# [5] = system: S. epidermidis (ATCC 12228); experiment: Antimicrobial susceptibility, broth dilution (MIC/MBC); assay type: cell-based, Staphylococcus epidermidis
# Experimental: The antibacterial effects of seven hops components against five different strains of bacteria involved in primary or secondary skin and soft tissue infections was evaluated, with broth dilution methods. […] Antimicrobial susceptibility testing was performed using a broth dilution method. Gentamicin or ampicillin was used as a control to verify the methodology. A stock solution (20 mg/ml) of the test substance (or vehicle control) was prepared in dimethyl sulfoxide. Serial dilution was done in microwell plates. Reinforced Clostridial Medium was used for P. acnes (ATCC 6919). Three hundreds […] of the test substance was added to the test tube containing P. acnes (10^5 CFU/ml) in 2.7 ml of cultures grown under anaerobic conditions. Mueller-Hinston Broth suitable for culturing S. epidermidis (ATCC 12228), K. rhizophila (formerly M. luteus) (ATCC 9341), and S. aureus (ATCC […]), and Brain Heart Infusion Broth suitable for culturing S. pyogenes (ATCC 14289) were used. A total of […] of the test substance was added to the test tube containing the other microorganisms (10^5CFU/ml) in 0.9 ml of cultures grown under controlled conditions. […] Samples from those tubes that scored positive was plated onto an agar plate and incubated under controlled conditions.
smiles,measurement,setting,value
"COc1cc(O)c(CC=C(C)C)c(O)c1C(=O)/C=C/c1ccc(O)cc1 [Xanthohumol (7), 3′-[3,3-dimethylallyl]-2′,4′,4-trihydroxy-6′-methoxychalcone]","quenching activity against hydroxyl radical (HORAC), rank among hop components",[1],highest quenching activity
same,"quenching activity against ferric ion (FRAP), rank among hop components",[2],highest quenching activity
same,"SOAC value, times higher than that of vitamin E or Polyphenon 60",[3],8-15 times
same,SOAC (Vitamin E equivalent),[3]; expressed as mmol VtE/g,14.1 Vitamin E equivalent
same,solubility at 5 min,"[4]; centrifuged 3,000 rpm 2 minutes, read-out: Water-solubility of XN (3,000 rpm)",4 µg/mL
same,solubility at 5 min,"[4]; centrifuged 12,000 rpm 3 minutes, read-out: Water-solubility of XN (12,000 rpm)",2 µg/mL
same,MBC,[5],[10] g/mL
same,MIC,[5]; 1 day,3 µg/mL
same,MIC,"[5]; Staphylococcus epidermidis, ATCC12228",1000 µg/mL
